From patent US20190322643A1 (Georgia State University Research Foundation, Inc., priority 2016, published 2019)
Where two headings read alike, the source gives them in different places.

Columns and labels:
HDAC [1] = assay: Cell based homogenous HDAC assay, A549; settings: read-out: IC50-HDAC A549; A549 cells, mean ± SD of triplicate
Method: (§5) After 24 h, 9 μl inhibitors with different concentration were added to the HeLa cells and incubation was continued for 3 h under cell culture conditions. After this treatment period, 10 μl of a 2 mM stock solution of the substrate Boc-K(Ac)-AMC was added into the 96 well plates with Hela cells and inhibitors. […] A549 and K562 cell lines used the same method, respectively. IC50s were calculated using GraphPad Prizm statistical package with sigmoidal variable slope dose response curve fit.
(§6) Boc-K(Ac)-AMC was used as a cell-permeable HDAC substrate, as after deacetylation it is cleaved by trypsin to release the florescent 7-amino-4-methylcoumarin (AMC).

[2] = biological target: T1, Mouse histone methyltransferase G9a (969-1263) (Mus musculus, UniProt Q9Z148); assay: MALDI-TOF methylation study of G9a inhibition; type: biochemical; settings: inhibitors at 5 μM concentration for 30 min
T1 construct: The 6His-sumo mG9a (969-1263) protein was purified using the following procedure; 6His-sumo (cleaved yes); made in house; host or cells: Escherichia coli BL21 (DE3)
T1 sequence (Q9Z148 969-1263): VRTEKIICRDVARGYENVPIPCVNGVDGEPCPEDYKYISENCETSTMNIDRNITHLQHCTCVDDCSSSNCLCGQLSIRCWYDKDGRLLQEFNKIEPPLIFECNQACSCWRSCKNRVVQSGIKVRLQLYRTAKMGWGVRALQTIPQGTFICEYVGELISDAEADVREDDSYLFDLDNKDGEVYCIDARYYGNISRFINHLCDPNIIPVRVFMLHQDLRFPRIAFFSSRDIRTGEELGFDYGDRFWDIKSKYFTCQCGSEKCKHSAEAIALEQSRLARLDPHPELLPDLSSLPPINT
Method: Mouse histone methyltransferase G9a (969-1263) cDNA was amplified from the cDNA of BALB/c mouse thymus, and the fragment was sub-cloned into a vector with a 6His-sumo tag. […] The 6His-sumo mG9a (969-1263) protein was purified using the following procedure: harvested cell pellet was re-suspended in 20 mM Tris (pH 8.0), 500 mM NaCl, 0.1% β-mercaptoethanol, and 1 mM PMSF. Cells were lysed by sonicating for 15 seconds with 6 second intervals for a total time of 15 minutes on an ice bath. […] The 6His-sumo tag was cleaved from the column by adding Ubiquitin-like-specific protease 1 (ULP-1) at 4° C. for 12 hours. Wash buffer was then run through the Ni^+ column again and the elution buffer collected. Subsequently, advanced protein purification was done by HiTrap Q HP sequential Superdex 200 10/300 GL. Elute of every step was analyzed by SDS PAGE, stained by Coomassie brilliant blue (CBB). […] The reaction was incubated at room temperature for 30 min, and stopped by TFA. 1 μL of the sample was mixed with CHCA matrix and m/z peaks were obtained at reflection positive mode. The results of mass spectrum were analyzed using the Bruker flex analysis software and data processing was carried out as described below. MALDI-TOF based experiments were performed according to the protocol developed by Chang et al. (Nat. Struct. Mol. Biol. 2009, 16, 312-317). MALDI spectra were collected using Bruker flex control software and analyzed by flex analysis. After labelling each cluster peaks of H3K9Me0, H3K9Me1 and H3K9Me2 for all of the tested concentrations, area under the cluster (AUC) were extracted by using the same flex analysis software. % abundance of each peak was calculated by following formula: A=% Abundance of (H3K9Me0)=area of H3K9Me0/(area of H3K9Me0+area of H3K9Me1+area of H3K9Me2) B=% Abundance of (H3K9Me1)=area of H3K9Me1/(area of H3K9Me0+area of H3K9Me1+area of H3K9Me2) C=% Abundance of (H3K9Me2)=area of H3K9Me2/(area of H3K9Me0+area of H3K9Me1+area of H3K9Me2). This was repeated for each spectra (3 multiples for each samples). […] Finally % inhibition was found by subtracting % MA(i) from 100. […] A biochemical assay using MALDI-TOF was used to visualize the effects of the synthesized compounds on G9a enzymatic activity. […] Struct. Mol. Biol. 2009, 16, 312-317).

MDA-MB-231 = assay: Cytotoxicity / anti-proliferation assay (CCK-8), MDA-MB-231; type: cell-based; settings: Homo sapiens
Method: (§1) A549, MDA-MB-231, HCT-8, MCF-7, and HEK293 cells were seeded at 8000-10000 cells (100 μl) in white 96-well plates and pre-incubate the plate for 24 h under standard cell culture conditions, respectively. Then the cells were exposed to the different inhibitors with various concentrations for 72 h. Finally, 10 μl of CCK-8 kit solution was added to each well and incubated for 3-4 hours under standard cell culture conditions, and the 96 well plates were measured the absorbance at 450 nm using Perkin-Elmer Wallac Victor ^3V 1420 multi label plate reader (Perkin-Elmer, Wellesley, USA). EC50s were calculated using GraphPad Prizm statistical package with sigmoidal variable slope dose response curve fit.
(§2) Cell anti-proliferation assays were performed to determine the toxicity of these inhibitors. Several cell lines (MDA-MB-231, MCF-7, A549 and HCT-8) were incubated and then treated with varying concentrations of the inhibitors for 72 h, respectively. […] These compounds were further evaluated against the control cell line HEK293 to test their toxicity with a non-cancerous cell line.

HDAC [3] = assay: Cell based homogenous HDAC assay, K562; settings: read-out: IC50-HDAC K562; K562 cells, mean ± SD of triplicate
Method: as §5, §6

HDAC [4] = assay: Cell based homogenous HDAC assay, Hela; settings: read-out: IC50-HDAC Hela; Hela cells, mean ± SD of triplicate
Method: as §5, §6

HEK293 = assay: Toxicity assay (CCK-8) in control non-cancerous cell line; type: cell-based
Method: as §1, §2

G9a = biological target: T2, G9a (Homo sapiens, UniProt Q96KQ7); assay: H3K9Me2 cell immunofluorescence in-cell Western (ICW) assay; type: cell-based; settings: MDA-MB-231 cell line, 48 h
T2 construct: endogenous in cells; host or cells: MDA-MB-231
T2 sequence (Q96KQ7 1-1210): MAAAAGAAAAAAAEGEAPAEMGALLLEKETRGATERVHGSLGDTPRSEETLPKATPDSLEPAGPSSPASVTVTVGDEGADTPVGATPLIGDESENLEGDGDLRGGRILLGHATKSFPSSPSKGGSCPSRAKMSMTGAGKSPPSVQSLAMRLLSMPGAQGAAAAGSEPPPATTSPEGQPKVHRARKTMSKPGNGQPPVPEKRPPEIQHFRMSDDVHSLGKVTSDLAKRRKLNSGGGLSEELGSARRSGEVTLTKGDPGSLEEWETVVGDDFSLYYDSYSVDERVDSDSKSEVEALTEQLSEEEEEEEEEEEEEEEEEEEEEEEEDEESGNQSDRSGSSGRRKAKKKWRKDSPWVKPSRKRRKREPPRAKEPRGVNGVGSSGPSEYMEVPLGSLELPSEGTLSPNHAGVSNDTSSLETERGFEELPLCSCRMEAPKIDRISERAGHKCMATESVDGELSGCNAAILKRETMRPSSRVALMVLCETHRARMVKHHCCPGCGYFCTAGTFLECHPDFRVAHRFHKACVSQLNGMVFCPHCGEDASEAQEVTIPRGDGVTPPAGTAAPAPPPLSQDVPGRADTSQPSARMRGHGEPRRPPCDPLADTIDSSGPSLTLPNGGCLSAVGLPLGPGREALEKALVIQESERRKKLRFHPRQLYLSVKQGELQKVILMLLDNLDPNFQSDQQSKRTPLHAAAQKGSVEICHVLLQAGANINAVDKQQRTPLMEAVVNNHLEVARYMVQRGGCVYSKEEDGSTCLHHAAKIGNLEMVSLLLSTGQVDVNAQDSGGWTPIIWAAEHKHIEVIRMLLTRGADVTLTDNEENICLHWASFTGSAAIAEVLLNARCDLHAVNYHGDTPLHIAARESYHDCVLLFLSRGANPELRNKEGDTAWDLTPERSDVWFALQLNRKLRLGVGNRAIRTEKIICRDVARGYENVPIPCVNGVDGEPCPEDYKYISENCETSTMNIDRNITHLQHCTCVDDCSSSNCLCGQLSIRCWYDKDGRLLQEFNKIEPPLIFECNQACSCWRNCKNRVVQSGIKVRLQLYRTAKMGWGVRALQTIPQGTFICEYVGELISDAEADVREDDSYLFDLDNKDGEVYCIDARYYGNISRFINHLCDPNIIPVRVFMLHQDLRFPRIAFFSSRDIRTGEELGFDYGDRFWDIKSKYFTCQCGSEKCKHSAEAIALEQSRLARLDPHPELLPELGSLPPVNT
Method: After the incubation, the media was removed and 100 μl fixation and permeabilization solution (2% formaldehyde in PBS) for fixation was added for 30 min. And then use 200 μl 0.1% Triton X100 in PBS washing solution to wash (allow wash to shake on a plate shaker for 5 minutes). After five washes, cells were blocked for 1 h with 150 μl blocking buffer to each well (1% BSA in PBS) (allow blocking at RT with moderate shaking on a plate shaker). After 1 h, remove the blocking buffer from the blocking step and add primary antibody in blocking buffer to cover the bottom of each well. […] The plates were read on an Odyssey CLX (LiCor) scanner at both 800 nm (H3K9me2 signal) and 700 nm (cell tag 700 stain signal) channels. IC50s were calculated using GraphPad Prizm statistical package with sigmoidal variable slope dose response curve fit.

HCT-8 = assay: Cytotoxicity / anti-proliferation assay (CCK-8), HCT-8; type: cell-based; settings: Homo sapiens, 72 h, CCK-8 kit
Method: (§3) Then the cells were exposed to the different inhibitors with various concentrations for 72 h. […] EC50s were calculated using GraphPad Prizm statistical package with sigmoidal variable slope dose response curve fit.
(§4) Cell anti-proliferation assays were performed to determine the toxicity of these inhibitors. […] These compounds were further evaluated against the control cell line HEK293 to test their toxicity with a non-cancerous cell line.

A549 = assay: Cytotoxicity / anti-proliferation assay (CCK-8), A549; type: cell-based; settings: Homo sapiens, 72 h, CCK-8 kit
Method: as §3, §4

[5] = alone or as 1:1 mixture, 1-100 μM, read-out: EC50 value

Work on `COc1cc2nc(N3CCCN(C)CC3)nc(NC3CCN(Cc4ccccc4)CC3)c2cc1OC.Cl.Cl.Cl` [BIX-01294, 2-(hexahydro-4-methyl-1H-1,4-diazepin-1-yl)-6,7-dimethoxy-N-[1-(phenylmethyl)-4-piperidinyl]-4-quinazolinamine trihydrochloride, reference compound] yielded an IC50 (HDAC [1]) of over 100 µM, an inhibition at 5 µM [2] of 77.7 ± 5.73% and an EC50 (MDA-MB-231; [5]) of 2.16 ± 0.88 µM. For the same compound, the IC50 (HDAC [3]) was over 100 µM, the IC50 (HDAC [4]) was over 100 µM and the “toxicity in normal cell line” value (HEK293) was “toxic”.

In the case of `COc1cc2nc(NCCNC(=O)CCCCCC(=O)NO)nc(NC3CCN(C(C)C)CC3)c2cc1OC` [Compound 5a, N1-hydroxy-N7-(2-((4-((1-isopropylpiperidin-4-yl)amino)-6,7-dimethoxyquinazolin-2-yl)amino)ethyl)heptanediamide], the IC50 (HDAC [1]) is reported as over 100 µM, the IC50 (G9a) is reported as 66.6 ± 3.98 µM and the inhibition at 5 µM [2] is reported as 47.5 ± 9.32%. For the same compound, the EC50 (HCT-8) was over 100 µM, the IC50 (HDAC [3]) was over 100 µM and the EC50 (A549) was over 100 µM. For the same compound, the IC50 (HDAC [4]) was over 100 µM.

Work on `COc1cc2nc(NCCNC(=O)CCCCC(=O)NO)nc(NC3CCN(C)CC3)c2cc1OC` [Compound 6, N1-(2-((6,7-dimethoxy-4-((1-methylpiperidin-4-yl)amino)quinazolin-2-yl)amino)ethyl)-N6-hydroxyadipamide] yielded an IC50 (HDAC [1]) of over 100 µM, an IC50 (G9a) of over 100 µM and an inhibition at 5 µM [2] of 26.6 ± 11.3%. The EC50 (HCT-8) was over 100 µM, the IC50 (HDAC [3]) was over 100 µM and the EC50 (A549) was over 100 µM. For the same compound, the IC50 (HDAC [4]) was over 100 µM.

Work on `COc1cc2nc(NCCNC(=O)CCCCC(=O)NO)nc(NC3CCN(C(C)C)CC3)c2cc1OC` [Compound 6a, N1-hydroxy-N6-(2-((4-((1-isopropylpiperidin-4-yl)amino)-6,7-dimethoxyquinazolin-2-yl)amino)ethyl)adipamide] yielded an IC50 (HDAC [1]) of over 100 µM, an IC50 (G9a) of over 100 µM and an inhibition at 5 µM [2] of 50.6 ± 16.5%. For the same compound, the EC50 (HCT-8) was over 100 µM, the IC50 (HDAC [3]) was over 100 µM and the EC50 (A549) was over 100 µM. For the same compound, the IC50 (HDAC [4]) was over 100 µM.

`COc1cc2nc(NCCNC(=O)CCCC(=O)NO)nc(NC3CCN(C)CC3)c2cc1OC` [Compound 7, N1-(2-((6,7-dimethoxy-4-((1-methylpiperidin-4-yl)amino)quinazolin-2-yl)amino)ethyl)-N5-hydroxyglutaramide] was tested, and the IC50 (HDAC [1]) was over 100 µM, the IC50 (G9a) was 76.7 ± 0.89 µM and the inhibition at 5 µM [2] was 19.6 ± 20.9%. For the same compound, the EC50 (HCT-8) was over 100 µM, the IC50 (HDAC [3]) was over 100 µM and the EC50 (A549) was over 100 µM. The IC50 (HDAC [4]) was over 100 µM.

In the case of `COc1cc2nc(NCCNC(=O)CCCC(=O)NO)nc(NC3CCN(C(C)C)CC3)c2cc1OC` [Compound 7a, N1-hydroxy-N5-(2-((4-((1-isopropylpiperidin-4-yl)amino)-6,7-dimethoxyquinazolin-2-yl)amino)ethyl)glutaramide], the IC50 (HDAC [1]) is reported as over 100 µM, the IC50 (G9a) is reported as 54.6 ± 3.05 µM and the inhibition at 5 µM [2] is reported as 15 ± 15.7%. For the same compound, the EC50 (HCT-8) was over 100 µM, the IC50 (HDAC [3]) was over 100 µM and the EC50 (A549) was over 100 µM. For the same compound, the IC50 (HDAC [4]) was over 100 µM.

`COc1cc2c(NC3CCN(C(C)C)CC3)nc(N3CCCN(C)CC3)nc2cc1OCCCCCCC(=O)NO` [Compound 26, N-hydroxy-7-((4-((1-isopropylpiperidin-4-yl)amino)-6-methoxy-2-(4-methyl-1,4-diazepan-1-yl)quinazolin-7-yl)oxy)heptanamide] was tested, and the IC50 (HDAC [1]) was over 100 µM, the IC50 (G9a) was 27.4 ± 3.59 µM and the inhibition at 5 µM [2] was 35.6 ± 0.88%. It also gave an EC50 (HCT-8) of over 100 µM, an IC50 (HDAC [3]) of over 100 µM and an EC50 (A549) of over 100 µM. For the same compound, the IC50 (HDAC [4]) was over 100 µM.

In the case of `O=C(CCCCCCC(=O)Nc1ccccc1)NO` [SAHA, N-hydroxy-N′-phenyl-octanediamide], the EC50 (MDA-MB-231; 72 h, CCK-8 kit, read-out: EC50 MDA-MB-231) is reported as 2.87 ± 0.84 µM, the EC50 (MDA-MB-231; [5]) is reported as 2.87 ± 0.84 µM and the “toxicity in normal cell line” value (HEK293) is reported as “toxic”.
